Laboratory results reported in the NIST ThermoML archive (doi:10.1021/je2005209).
± gives the expanded uncertainty stated by the source.

Conditions: 351.55 K; Liquid; Ebulliometric method (Recirculating still)

vapor or sublimation pressure: 101.32 ± 1.1 kPa
SMILES: CCO [ethanol]
